Measured values from patent publication US20240208992A1, “MACROCYCLES AS CFTR MODULATORS” (Idorsia Pharmaceuticals Ltd, priority 2021, published 2024).
One block for each compound: values may come before it.

Target: human F508del-CFTR (Homo sapiens, UniProt P13569, DEL508-508)
Assay: F508del-CFTR cell surface expression (corrector activity), DiscoveRx ß-galactosidase complementation chemiluminescence assay in recombinant U2OS cell line;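 also: U2OS cells co-expressing ProLink-tagged F508del-CFTR and a membrane-anchored enzyme acceptor, where more surface CFTR restores β-galactosidase activity measured by chemiluminescence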
Conditions: U2OS cells, 16h compound incubation; for EC50: geomean of several measurements; for Emax: in relation to the Emax of the corrector lumacaftor (=100%), arithmetic mean
[1] = EC50, F508del-CFTR cell surface expression

Sequence of human F508del-CFTR (P13569 with tags, fused parts or gaps DEL508-508): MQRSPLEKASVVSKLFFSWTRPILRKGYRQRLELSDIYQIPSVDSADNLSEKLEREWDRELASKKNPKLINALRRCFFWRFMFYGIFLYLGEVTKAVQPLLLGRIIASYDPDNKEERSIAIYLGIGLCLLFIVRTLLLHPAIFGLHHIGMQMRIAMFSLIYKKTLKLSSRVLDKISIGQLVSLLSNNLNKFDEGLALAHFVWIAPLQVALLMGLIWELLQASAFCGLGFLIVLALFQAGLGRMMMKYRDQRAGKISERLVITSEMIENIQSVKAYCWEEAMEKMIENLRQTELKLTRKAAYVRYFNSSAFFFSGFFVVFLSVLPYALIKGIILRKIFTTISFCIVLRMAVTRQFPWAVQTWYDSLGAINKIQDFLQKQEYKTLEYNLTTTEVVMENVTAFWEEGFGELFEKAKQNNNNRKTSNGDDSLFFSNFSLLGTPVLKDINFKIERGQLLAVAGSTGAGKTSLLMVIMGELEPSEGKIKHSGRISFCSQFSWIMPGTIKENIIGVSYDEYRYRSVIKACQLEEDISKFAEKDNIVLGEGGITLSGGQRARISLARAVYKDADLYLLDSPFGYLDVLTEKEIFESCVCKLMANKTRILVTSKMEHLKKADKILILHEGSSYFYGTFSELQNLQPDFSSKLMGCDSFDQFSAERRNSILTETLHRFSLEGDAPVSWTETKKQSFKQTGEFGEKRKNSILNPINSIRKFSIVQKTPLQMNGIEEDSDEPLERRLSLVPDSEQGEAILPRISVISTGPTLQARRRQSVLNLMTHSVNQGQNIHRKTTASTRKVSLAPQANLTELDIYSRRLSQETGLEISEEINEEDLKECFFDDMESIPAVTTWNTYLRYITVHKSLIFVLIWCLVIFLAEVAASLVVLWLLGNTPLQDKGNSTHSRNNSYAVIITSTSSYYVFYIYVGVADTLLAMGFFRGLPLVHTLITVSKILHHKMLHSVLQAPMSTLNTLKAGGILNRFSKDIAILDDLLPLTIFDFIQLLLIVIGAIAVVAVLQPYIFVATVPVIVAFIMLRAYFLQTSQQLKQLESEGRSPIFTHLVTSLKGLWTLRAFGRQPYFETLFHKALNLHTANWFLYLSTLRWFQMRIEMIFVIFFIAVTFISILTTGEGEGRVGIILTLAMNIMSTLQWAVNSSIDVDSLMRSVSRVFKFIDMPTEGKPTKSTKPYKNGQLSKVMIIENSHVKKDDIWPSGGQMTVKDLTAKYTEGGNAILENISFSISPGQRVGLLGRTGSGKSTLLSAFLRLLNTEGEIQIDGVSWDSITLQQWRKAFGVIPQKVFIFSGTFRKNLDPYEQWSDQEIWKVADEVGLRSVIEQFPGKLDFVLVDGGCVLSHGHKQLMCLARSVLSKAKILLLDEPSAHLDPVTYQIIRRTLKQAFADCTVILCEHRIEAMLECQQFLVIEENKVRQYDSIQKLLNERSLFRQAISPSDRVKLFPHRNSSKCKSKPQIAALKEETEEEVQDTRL

Structure (SMILES): CC(C)C[C@H]1C(=O)N(C)[C@H](Cc2nc(C(F)(F)F)no2)C(=O)N[C@H](Cc2ccccc2)COc2cnc3ccc(F)cc3c2C(=O)N[C@H](C(=O)NCCc2noc(C3CC3)n2)CC(=O)N1C [Example 811, (3S,7S,10R,13R)-13-benzyl-N-(2-(5-cyclopropyl-1,2,4-oxadiazol-3-yl)ethyl)-20-fluoro-7-isobutyl-6,9-dimethyl-1,5,8,11-tetraoxo-10-((3-(trifluoromethyl)-1,2,4-oxadiazol-5-yl)methyl)-1,2,3,4,5,6,7,8,9,10,11,12,13,14-tetradecahydro-[1]oxa[4,7,10,14]tetraazacycloheptadecino[17,16-c]quinoline-3-carboxamide]
EC50 [1]: 19 nM | Emax (U2OS): 333%

Structure (SMILES): CC(C)C[C@H]1C(=O)N(C)[C@@H](Cc2nc(C(F)(F)F)no2)C(=O)N[C@H](Cc2ccccc2)COc2cnc3ccc(F)cc3c2C(=O)N[C@H](C(=O)NCCc2noc(C3CC3)n2)CC(=O)N1C [Example 812, (3S,7S,10S,13R)-13-benzyl-N-(2-(5-cyclopropyl-1,2,4-oxadiazol-3-yl)ethyl)-20-fluoro-7-isobutyl-6,9-dimethyl-1,5,8,11-tetraoxo-10-((3-(trifluoromethyl)-1,2,4-oxadiazol-5-yl)methyl)-1,2,3,4,5,6,7,8,9,10,11,12,13,14-tetradecahydro-[1]oxa[4,7,10,14]tetraazacycloheptadecino[17,16-c]quinoline-3-carboxamide]
EC50 [1]: 127 nM | Emax (U2OS): 280%

Structure (SMILES): CC(C)C[C@H]1C(=O)N(C)[C@H](Cc2nc(-c3ccc(F)cn3)no2)C(=O)N[C@H](Cc2ccccc2)COc2cnc3ccc(F)cc3c2C(=O)N[C@H](C(=O)NCCc2noc(C3CC3)n2)CC(=O)N1C [Example 813, (3S,7S,10R,13R)-13-benzyl-N-(2-(5-cyclopropyl-1,2,4-oxadiazol-3-yl)ethyl)-20-fluoro-10-((3-(5-fluoropyridin-2-yl)-1,2,4-oxadiazol-5-yl)methyl)-7-isobutyl-6,9-dimethyl-1,5,8,11-tetraoxo-1,2,3,4,5,6,7,8,9,10,11,12,13,14-tetradecahydro-[1]oxa[4,7,10,14]tetraazacycloheptadecino[17,16-c]quinoline-3-carboxamide]
EC50 [1]: 110 nM | Emax (U2OS): 346%

Structure (SMILES): CC(C)C[C@H]1C(=O)N(C)C2(CC2)C(=O)N[C@H](Cc2ccccc2)COc2ccc3ncc(F)cc3c2C(=O)N[C@H](C(=O)NCCn2nnc(C3CC3)n2)CC(=O)N1C [Example 817, (3′S,7′S,13′R)-13′-benzyl-N-(2-(5-cyclopropyl-2H-tetrazol-2-yl)ethyl)-20′-fluoro-7′-isobutyl-6′,9′-dimethyl-1′,5′,8′,11′-tetraoxo-2′,3′,4′,5′,6′,7′,8′,9′,11′,12′,13′,14′-dodecahydro-1′H-spiro[cyclopropane-1,10′-[1]oxa[4,7,10,14]tetraazacycloheptadecino[16,17-f]quinoline]-3′-carboxamide]
EC50 [1]: 420 nM | Emax (U2OS): 375%

Structure (SMILES): COc1cc(CCNC(=O)[C@@H]2CC(=O)N(C)[C@@H](CC(C)C)C(=O)N(C)C3(CC3)C(=O)N[C@H](Cc3ccccc3)COc3ccc4ncc(F)cc4c3C(=O)N2)on1 [Example 818, (3′S,7′S,13′R)-13′-benzyl-20′-fluoro-7′-isobutyl-N-(2-(3-methoxyisoxazol-5-yl)ethyl)-6′,9′-dimethyl-1′,5′,8′,11′-tetraoxo-2′,3′,4′,5′,6′,7′,8′,9′,11′,12′,13′,14′-dodecahydro-1′H-spiro[cyclopropane-1,10′-[1]oxa[4,7,10,14]tetraazacycloheptadecino[16,17-f]quinoline]-3′-carboxamide]
EC50 [1]: 385 nM | Emax (U2OS): 359%

Structure (SMILES): COc1cc(CCNC(=O)[C@@H]2CC(=O)N(C)[C@@H](CC(C)C)C(=O)N(C)[C@H](CC(F)F)C(=O)N[C@H](Cc3ccccc3)COc3ccc4ncc(F)cc4c3C(=O)N2)on1 [Example 819, (3S,7S,10R,13R)-13-benzyl-10-(2,2-difluoroethyl)-20-fluoro-7-isobutyl-N-(2-(3-methoxyisoxazol-5-yl)ethyl)-6,9-dimethyl-1,5,8,11-tetraoxo-1,2,3,4,5,6,7,8,9,10,11,12,13,14-tetradecahydro-[1]oxa[4,7,10,14]tetraazacycloheptadecino[16,17-f]quinoline-3-carboxamide]
EC50 [1]: 276 nM | Emax (U2OS): 431%

Structure (SMILES): COc1nc(C)cc2c1C(=O)N[C@H](C(=O)NCCc1noc(C3CC3)n1)CC(=O)N(C)[C@@H](CC(C)C)C(=O)N(C)[C@H](Cc1nc(C(F)(F)F)no1)C(=O)N[C@H](Cc1ccccc1)CO2 [Example 820, (3R,6R,9S,13S)-3-benzyl-N-(2-(5-cyclopropyl-1,2,4-oxadiazol-3-yl)ethyl)-9-isobutyl-16-methoxy-7,10,18-trimethyl-5,8,11,15-tetraoxo-6-((3-(trifluoromethyl)-1,2,4-oxadiazol-5-yl)methyl)-2,3,4,5,6,7,8,9,10,11,12,13,14,15-tetradecahydropyrido[3,4-p][1]oxa[4,7,10,14]tetraazacycloheptadecine-13-carboxamide]
EC50 [1]: 49 nM | Emax (U2OS): 461%

Structure (SMILES): COc1noc(CCNC(=O)[C@@H]2CC(=O)N(C)[C@@H](CC(C)C)C(=O)N3CCCC[C@@H]3C(=O)N[C@H](Cc3ccccc3)COc3ccc4ncc(F)cc4c3C(=O)N2)n1 [Example 821, (9S,13S,19aR,22R)-22-benzyl-5-fluoro-13-isobutyl-N-(2-(3-methoxy-1,2,4-oxadiazol-5-yl)ethyl)-12-methyl-7,11,14,20-tetraoxo-7,8,9,10,11,12,13,14,17,18,19,19a,20,21,22,23-hexadecahydro-16H-pyrido[2′,1′:6,7][1]oxa[4,7,10,14]tetraazacycloheptadecino[16,17-f]quinoline-9-carboxamide]
EC50 [1]: 200 nM | Emax (U2OS): 392%

Structure (SMILES): COc1cc(CCNC(=O)[C@@H]2CC(=O)N(C)[C@@H](CC(C)C)C(=O)N3CCCC[C@@H]3C(=O)N[C@H](Cc3ccccc3)COc3cc(C)c4ncccc4c3C(=O)N2)on1 [Example 822, (9S,13S,19aR,22R)-22-benzyl-13-isobutyl-N-(2-(3-methoxyisoxazol-5-yl)ethyl)-2,12-dimethyl-7,11,14,20-tetraoxo-7,8,9,10,11,12,13,14,17,18,19,19a,20,21,22,23-hexadecahydro-16H-pyrido[2′,1′:6,7][1]oxa[4,7,10,14]tetraazacycloheptadecino[16,17-f]quinoline-9-carboxamide]
EC50 [1]: 131 nM | Emax (U2OS): 363%

More lines, now with the values ahead:

EC50 [1]: 10 nM | Emax (U2OS): 391%
Structure (SMILES): COc1cc(CCNC(=O)[C@@H]2CC(=O)N(C)[C@@H](CC(C)C)C(=O)N(C)[C@H](Cc3nc(C(F)(F)F)no3)C(=O)N[C@H](Cc3ccccc3)COc3cnc4ccc(F)cc4c3C(=O)N2)on1 [Example 809, (3S,7S,10R,13R)-13-benzyl-20-fluoro-7-isobutyl-N-(2-(3-methoxyisoxazol-5-yl)ethyl)-6,9-dimethyl-1,5,8,11-tetraoxo-10-((3-(trifluoromethyl)-1,2,4-oxadiazol-5-yl)methyl)-1,2,3,4,5,6,7,8,9,10,11,12,13,14-tetradecahydro-[1]oxa[4,7,10,14]tetraazacycloheptadecino[17,16-c]quinoline-3-carboxamide]

EC50 [1]: 161 nM | Emax (U2OS): 285%
Structure (SMILES): COc1cc(CCNC(=O)[C@@H]2CC(=O)N(C)[C@@H](CC(C)C)C(=O)N(C)[C@@H](Cc3nc(C(F)(F)F)no3)C(=O)N[C@H](Cc3ccccc3)COc3cnc4ccc(F)cc4c3C(=O)N2)on1 [Example 810, (3S,7S,10S,13R)-13-benzyl-20-fluoro-7-isobutyl-N-(2-(3-methoxyisoxazol-5-yl)ethyl)-6,9-dimethyl-1,5,8,11-tetraoxo-10-((3-(trifluoromethyl)-1,2,4-oxadiazol-5-yl)methyl)-1,2,3,4,5,6,7,8,9,10,11,12,13,14-tetradecahydro-[1]oxa[4,7,10,14]tetraazacycloheptadecino[17,16-c]quinoline-3-carboxamide]

EC50 (F508del-CFTR cell surface expression): 631 nM | Emax: 242%
Structure (SMILES): CC(C)C[C@H]1C(=O)N(C)[C@@H](Cc2nc(-c3ccc(F)cn3)no2)C(=O)N[C@H](Cc2ccccc2)COc2cnc3ccc(F)cc3c2C(=O)N[C@H](C(=O)NCCc2noc(C3CC3)n2)CC(=O)N1C [Example 814, (3S,7S,10S,13R)-13-benzyl-N-(2-(5-cyclopropyl-1,2,4-oxadiazol-3-yl)ethyl)-20-fluoro-10-((3-(5-fluoropyridin-2-yl)-1,2,4-oxadiazol-5-yl)methyl)-7-isobutyl-6,9-dimethyl-1,5,8,11-tetraoxo-1,2,3,4,5,6,7,8,9,10,11,12,13,14-tetradecahydro-[1]oxa[4,7,10,14]tetraazacycloheptadecino[17,16-c]quinoline-3-carboxamide]

EC50 [1]: 128 nM | Emax (U2OS): 413%
Structure (SMILES): COc1cc(CCNC(=O)[C@@H]2CC(=O)N(C)[C@@H](CC(C)C)C(=O)N(C)[C@H](Cc3nc(-c4ccc(F)cn4)no3)C(=O)N[C@H](Cc3ccccc3)COc3cnc4ccc(F)cc4c3C(=O)N2)on1 [Example 815, (3S,7S,10R,13R)-13-benzyl-20-fluoro-10-((3-(5-fluoropyridin-2-yl)-1,2,4-oxadiazol-5-yl)methyl)-7-isobutyl-N-(2-(3-methoxyisoxazol-5-yl)ethyl)-6,9-dimethyl-1,5,8,11-tetraoxo-1,2,3,4,5,6,7,8,9,10,11,12,13,14-tetradecahydro-[1]oxa[4,7,10,14]tetraazacycloheptadecino[17,16-c]quinoline-3-carboxamide]

EC50 [1]: 741 nM | Emax (U2OS): 286%
Structure (SMILES): COc1cc(CCNC(=O)[C@@H]2CC(=O)N(C)[C@@H](CC(C)C)C(=O)N(C)[C@@H](Cc3nc(-c4ccc(F)cn4)no3)C(=O)N[C@H](Cc3ccccc3)COc3cnc4ccc(F)cc4c3C(=O)N2)on1 [Example 816, (3S,7S,10S,13R)-13-benzyl-20-fluoro-10-((3-(5-fluoropyridin-2-yl)-1,2,4-oxadiazol-5-yl)methyl)-7-isobutyl-N-(2-(3-methoxyisoxazol-5-yl)ethyl)-6,9-dimethyl-1,5,8,11-tetraoxo-1,2,3,4,5,6,7,8,9,10,11,12,13,14-tetradecahydro-[1]oxa[4,7,10,14]tetraazacycloheptadecino[17,16-c]quinoline-3-carboxamide]
